Laboratory results published in the supplement of paper PMC7017272.
± gives the standard deviation of the averaged measurements.

Columns and labels:
Conditions in all cases: treatment time: 3 days
[1] = system: UT-SCC-24A; experiment: maximal % inhibition of viability relative to DMSO; higher = stronger effect
Experimental: (§1)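 HNSCC cell lines (500 cells/well, 384-well) were cultured on plastic, on top of (2D) or embedded (3D) in Matrigel or human leiomyoma matrix Myogel (500 ug/mL; Myogel 3D mixed with rat collagen I). Cells were treated for 3 days with 5 ten-fold concentrations of each drug, and viability was read by CellTiter-Glo. Viability was normalised to DMSO (0% inhibition) and 100 uM benzethonium chloride (100% inhibition) controls and fitted with the FIMM DSRT pipeline to give IC50 (nM), maximal % inhibition and the drug sensitivity score (DSS). Suffixes _1/_2/_3 on drug names are replicates.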

[2] = system: UT-SCC-24A; experiment: drug sensitivity score (DSS); higher = more sensitive
Experimental: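 HNSCC cell lines (500 cells/well, 384-well) were cultured on plastic, on top of (2D) or embedded (3D) in Matrigel or human leiomyoma matrix Myogel (500 ug/mL; Myogel 3D mixed with rat collagen I). Cells were treated for 3 days with 5 ten-fold concentrations of each drug, and viability was read by CellTiter-Glo. Suffixes _1/_2/_3 on drug names are replicates.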

[3] = system: UT-SCC-8; experiment: drug sensitivity score (DSS); higher = more sensitive; extreme values may be limits of the assay
Procedure, shortened: (§2)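 Viability of HPV-negative HNSCC cell lines was measured by CellTiter-Glo 2.0 luminescence. Cells were seeded at 500 cells/well in 384-well plates on plastic, on Matrigel- or Myogel-coated wells (500 µg/mL), or embedded in Matrigel or Myogel plus rat collagen I, then given compounds at five 10-fold concentrations for 3 days, with signals normalised to vehicle (0.1% DMSO) and cell-killing control wells. Fitting of percent-inhibition dose–response curves in the FIMM pipeline yielded IC50, maximal inhibition and drug sensitivity score.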

[4] = system: UT-SCC-73; experiment: as above
Procedure, shortened: as §2

[5] = system: UT-SCC-40; experiment: as above
Procedure, shortened: as §2

[6] = system: UT-SCC-14; experiment: as above
Procedure, shortened: as §2

[7] = system: UT-SCC-42B; experiment: as above
Procedure, shortened: as §2

[8] = system: UT-SCC-24B; experiment: as above
Procedure, shortened: as §2

[9] = system: UT-SCC-28; experiment: as above
Procedure, shortened: as §2

[10] = system: UT-SCC-42A; experiment: as above
Procedure, shortened: as §2

[11] = system: UT-SCC-106A; experiment: as above
Procedure, shortened: as §2

[12] = system: UT-SCC-44; experiment: as above
Procedure, shortened: as §2

[13] = system: UT-SCC-81; experiment: as above
Procedure, shortened: as §2

[14] = system: UT-SCC-14; experiment: maximal % inhibition of viability relative to DMSO; higher = stronger effect
Experimental: as §1, with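 “DMSO” for “DMSO (0% inhibition)”, “and” for “and 100 uM”, “chloride” for “chloride (100% inhibition)”, “DSS.” for “the drug sensitivity score (DSS).”, “_1/_2/_3” for “_1/_2/_3 on drug names”, “replicates. Only inhibition-mode (IC50) fits are kept.” for “replicates.”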

[15] = system: UT-SCC-42B; experiment: as above
Experimental: as §1, with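 “DMSO” for “DMSO (0% inhibition)”, “and” for “and 100 uM”, “chloride” for “chloride (100% inhibition)”, “DSS.” for “the drug sensitivity score (DSS).”, “_1/_2/_3” for “_1/_2/_3 on drug names”, “replicates. Only inhibition-mode (IC50) fits are kept.” for “replicates.”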

[16] = system: UT-SCC-81; experiment: as above
Experimental: as §1, with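 “DMSO” for “DMSO (0% inhibition)”, “and” for “and 100 uM”, “chloride” for “chloride (100% inhibition)”, “DSS.” for “the drug sensitivity score (DSS).”, “_1/_2/_3” for “_1/_2/_3 on drug names”, “replicates. Only inhibition-mode (IC50) fits are kept.” for “replicates.”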

[17] = system: UT-SCC-24A; experiment: relative IC50 (midpoint of the fitted curve; maximal inhibition may be below 50%); higher = less potent
Experimental: as §1

[18] = culture condition: embedded in Matrigel
[19] = culture condition: embedded in Myogel + collagen I
[20] = culture condition: on top of Matrigel
[21] = culture condition: on top of Myogel
[22] = culture condition: plastic 2D (no matrix)

Cn1cnc2c(F)c(Nc3ccc(Br)cc3Cl)c(C(=O)NOCCO)cc21 [Selumetinib]
maximal % inhibition of viability [1, 18]: 81.7 ± 2.1% | maximal % inhibition of viability [1, 19]: 59.2 ± 2.4% | maximal % inhibition of viability [1, 20]: 76.7 ± 1.4% | maximal % inhibition of viability [1, 21]: 38.4 ± 3% | maximal % inhibition of viability [1, 22]: 70.2 ± 7.2% | drug sensitivity score [2, 18]: 20.7 ± 4.2 DSS | drug sensitivity score [2, 19]: 16.4 ± 1.8 DSS | drug sensitivity score [2, 20]: 19.4 ± 3.9 DSS | drug sensitivity score [2, 21]: 8.63 ± 1.6 DSS | drug sensitivity score [2, 22]: 17.9 ± 3.7 DSS | drug sensitivity score [3, 18]: 10.1 ± 1.3 DSS | drug sensitivity score [3, 19]: 1.37 ± 2.4 DSS | drug sensitivity score [3, 20]: 9.63 ± 0.58 DSS | drug sensitivity score [3, 21]: 10.3 ± 1.5 DSS | drug sensitivity score [3, 22]: 5.63 ± 2.3 DSS | drug sensitivity score [4, 18]: 21 ± 2.8 DSS | drug sensitivity score [4, 19]: 13.5 ± 3.5 DSS | drug sensitivity score [4, 20]: 20.2 ± 2.6 DSS | drug sensitivity score [4, 21]: 15.2 ± 1.1 DSS | drug sensitivity score [4, 22]: 17.9 ± 1.4 DSS | drug sensitivity score [5, 18]: 22.6 ± 0.71 DSS | drug sensitivity score [5, 19]: 17.6 ± 0.8 DSS | drug sensitivity score [5, 20]: 20.7 ± 0.92 DSS | drug sensitivity score [5, 21]: 11.2 ± 2.4 DSS | drug sensitivity score [5, 22]: 12.6 ± 2.5 DSS | drug sensitivity score [6, 18]: 7.13 ± 6.1 DSS | drug sensitivity score [6, 19]: 5.17 ± 3.2 DSS | drug sensitivity score [6, 20]: 7.17 ± 3 DSS | drug sensitivity score [6, 21]: 3.5 ± 3.6 DSS | drug sensitivity score [6, 22]: 0.833 ± 1.4 DSS | drug sensitivity score [7, 18]: 16.5 ± 4.6 DSS | drug sensitivity score [7, 20]: 8.67 ± 2.3 DSS | drug sensitivity score [7, 21]: 2.13 ± 0.76 DSS | drug sensitivity score [7, 22]: 2.33 ± 2 DSS | drug sensitivity score [8, 18]: 18.9 ± 1.8 DSS | drug sensitivity score [8, 19]: 18.2 ± 1.7 DSS | drug sensitivity score [8, 20]: 18.6 ± 0.25 DSS | drug sensitivity score [8, 21]: 17.6 ± 0.75 DSS | drug sensitivity score [8, 22]: 21 ± 0.4 DSS | drug sensitivity score [9, 18]: 8.07 ± 4.3 DSS | drug sensitivity score [9, 19]: 4.4 ± 3.9 DSS | drug sensitivity score [9, 20]: 6.2 ± 5.5 DSS | drug sensitivity score [9, 22]: 3.8 ± 3.9 DSS | drug sensitivity score [10, 18]: 10.9 ± 4.8 DSS | drug sensitivity score [10, 19]: 4.23 ± 4.5 DSS | drug sensitivity score [10, 20]: 14.4 ± 5 DSS | drug sensitivity score [10, 21]: 9.23 ± 2 DSS | drug sensitivity score [10, 22]: 10.8 ± 3 DSS | drug sensitivity score [11, 18]: 14.6 ± 2 DSS | drug sensitivity score [11, 19]: 0.867 ± 1.5 DSS | drug sensitivity score [11, 20]: 16.1 ± 0.75 DSS | drug sensitivity score [11, 21]: 1.03 ± 1.7 DSS | drug sensitivity score [11, 22]: 15.7 ± 2.3 DSS | drug sensitivity score [12, 18]: 15.8 ± 5.2 DSS | drug sensitivity score [12, 19]: 4.83 ± 4.2 DSS | drug sensitivity score [12, 20]: 12.3 ± 0.94 DSS | drug sensitivity score [12, 21]: 8.17 ± 1.2 DSS | drug sensitivity score [12, 22]: 7.8 ± 3.5 DSS | drug sensitivity score [13, 18]: 24.4 ± 0.94 DSS | drug sensitivity score [13, 19]: 7.33 ± 6.3 DSS | drug sensitivity score [13, 20]: 19.9 ± 0.72 DSS | drug sensitivity score [13, 21]: 9.93 ± 3.6 DSS | drug sensitivity score [13, 22]: 7.87 ± 8 DSS | maximal % inhibition of viability [14, 18]: 31 ± 16% | maximal % inhibition of viability [14, 19]: 26.1 ± 7.3% | maximal % inhibition of viability [14, 20]: 38.6 ± 9% | maximal % inhibition of viability [14, 21]: 32.2 ± 8.8% | maximal % inhibition of viability [14, 22]: 35.5 ± 14% | maximal % inhibition of viability [15, 18]: 67.7 ± 7.4% | maximal % inhibition of viability [15, 20]: 46.9 ± 14% | maximal % inhibition of viability [15, 21]: 17.3 ± 1.7% | maximal % inhibition of viability [15, 22]: 25.6 ± 8.1% | maximal % inhibition of viability [16, 18]: 87.8 ± 2% | maximal % inhibition of viability [16, 19]: 39.9 ± 7.8% | maximal % inhibition of viability [16, 20]: 82.63 ± 0.81% | maximal % inhibition of viability [16, 21]: 54.2 ± 2.4% | maximal % inhibition of viability [16, 22]: 68.7 ± 4.2% | relative IC50 [17, 21]: 137 nM | relative IC50 [17, 22]: 87.9 nM
